From patent publication US9605064B2, “Methods and compositions for treatment of skin disorders” (AbbVie Biotechnology Ltd, priority 2006, dated 2017)

Key:
[1] = tested on: patients with moderate to severe chronic plaque psoriasis; assay: PASI response, open-label extension of CHAMPION (methotrexate to adalimumab transition); type: in vivo, human
[2] = tested on: patients with moderate to severe chronic plaque psoriasis; conditions: in vivo
Excerpt: The study was a multi-center, 16-week, randomized controlled Phase III trial. The main inclusion criteria included: • Clinical diagnosis of psoriasis for ≧1 year • Affected body surface area (BSA)≧10% • Psoriasis Area and Severity Index (PASI)≧10 The main exclusion criteria was previous use of MTX or systemic anti-TNF therapy.

[3] = tested on: patients with moderate to severe plaque psoriasis; assay: PGA, 12-week open-label weekly therapy then randomized eow or withdrawal; type: in vivo, human
[4] = Adalimumab serum concentrations by ELISA, Phase II trial; type: in vivo, human; conditions: for steady-state concentration: 40 mg eow dosing; for mean adalimumab serum concentration: 80 mg at Week 0 and 40 mg at Week 1
[5] = tested on: patients with moderate to severe plaque psoriasis; assay: EuroQOL 5D (EQ-5D), Phase II trial; type: in vivo, human; conditions: Week 12
Procedure: This study provided the opportunity to evaluate the validity and responsiveness to change in clinical status of PROs instruments. Patients completed the DLQI, SF-36, and EQ-5D questionnaires at baseline and at 12 weeks. Blinded investigators assessed the Psoriasis Area and Severity Index (PASI) scores and the Physician's Global Assessment (PGA) scores of enrolled patients. The responsiveness of the measures to changes in the clinical endpoints from baseline to Week 12 was assessed. Estimates of minimum important differences (MID) were derived. All analyses were performed with blinded data; findings and conclusions were not biased based on treatment condition.
Three PROs measures were used in the study and are the subject of the analyses reported here. All PROs measures were assessed at baseline and at Week 12 (or early termination, if applicable).
The EQ-5D [17,18] is a six-item, preference-based instrument designed to measure general health status. The EQ-5D has two sections: The first consists of five items to assess degree of physical functioning (mobility, self-care, usual activities, pain/discomfort, and anxiety/depression). […]
The relationship between mean change in EQ-5D and clinical responses was evaluated from baseline to Week 12. […]

[6] = methotrexate-treated patients after 12 weeks of adalimumab therapy
[7] = methotrexate-treated patients after 24 weeks of adalimumab therapy

## Adalimumab: a human anti-TNF mAb, described in U.S. Pat. No. 6,090,382 as D2E7 (HUMIRA, Abbott Laboratories)
[1]; [6]
  PASI 75 response rate: 75%
  PASI 90 response rate: 47%
  PASI 100 response rate: 18%
[1]; [7]
  PASI 75 response rate: 73%
  PASI 90 response rate: 53%
  PASI 100 response rate: 32%
[2]
  Any infectious AE: 51 (48) n (%)
  Any infectious SAE: 0 (0) n (%)
[3]; open-label 40 mg weekly, Week 12
  PGA “Clear” or “Minimal”: 66%
[3]; randomized to 40 mg eow at Week 12, Week 24
  PGA “Clear” or “Minimal”: 54.4%
[4]; Week 11
  steady-state concentration: 6.0 µg/mL
[4]; Week 12
  steady-state concentration: 6.9 µg/mL
[4]; Week 1
  mean adalimumab serum concentration: 6.0 µg/mL
[4]; Week 2
  mean adalimumab serum concentration: 8.8 µg/mL
[5]; 40 mg eow
  Mean Change in EQ-5D VAS, Change from Baseline: 18
[5]; 40 mg weekly
  Mean Change in EQ-5D VAS, Change from Baseline: 10.9
